Data from ChEMBL document CHEMBL3045842, “Antioxidant and -glucosidase inhibitory compounds from Pimpinella candolleana Wight et Arn” (Med Chem Res, 2012).
In brackets after ≈: the same amount, converted by molar mass.

What was measured:
[1] = target: Lysosomal alpha-glucosidase (Homo sapiens) (UniProt P10253); experiment: Inhibition of alpha-glucosidase (unknown origin) using para-nitrophenyl-alpha-D-glucopyranoside as substrate incubated at 50 to 300 ug/ml for 15 min prior to substrate addition measured after 15 min by spectrophotometric analysis
[2] = system: Radical scavenging activity; experiment: Antioxidant activity assessed as as DPPH radical scavenging activity after 30 min by spectrophotometry; type: functional
[3] = Antioxidant activity assessed as ABTS radical scavenging activity after 10 min by spectrophotometry; type: functional
[4] = Antioxidant activity assessed as trolox equivalents of ferric reducing activity after 30 min by spectrophotometry; type: functional

SMILES	inhibition [1]	IC50 [2]	IC50 [3]	Activity [4]
O=c1cc(-c2ccc(O)cc2)oc2cc(O)c([C@@H]3O[C@H](CO)[C@@H](O)[C@H](O)[C@H]3O)c(O)c12	76.8%			
C[C@H]1O[C@H](O[C@H]2[C@H](O)[C@@H](O)[C@@H](O[C@H]3[C@H](O)[C@@H](O)C(O)O[C@@H]3CO)O[C@@H]2CO)[C@H](O)[C@@H](O)[C@@H]1N[C@H]1C=C(CO)[C@@H](O)[C@H](O)[C@H]1O (stereo not given in full)	55.6%			
O=c1cc(-c2ccc(O)c(O)c2)oc2cc(O)cc(O)c12 [LUTEOLIN]	99.9%	0.99 µg/mL (≈ 3.46 µM)		
Cc1cc(C(C)(C)C)c(O)c(C(C)(C)C)c1 [BUTYLATED HYDROXYTOLUENE]		18.71 µg/mL (≈ 84.9 µM)	6.64 µg/mL (≈ 30.1 µM)	1580 µmol/g
CC[C@H](/C=C/[C@@H](C)[C@H]1CC[C@H]2[C@@H]3CC=C4CC(OC(C)=O)CC[C@]4(C)[C@H]3CC[C@]12C)C(C)C (stereo not given in full)	99.1%			
C[C@H]1[C@H](C)CC[C@]2(C(=O)O)CC[C@]3(C)C(=CC[C@@H]4[C@@]5(C)CC[C@H](O)C(C)(C)[C@@H]5CC[C@]43C)[C@H]12	97.6%			
CCCOC(=O)c1cc(O)c(O)c(O)c1 [PROPYL GALLATE]		3.96 µg/mL (≈ 18.7 µM)		
